Reference: patent publication US12227514B2, “Crystal forms of thiophene derivatives” (TIANJIN HEMAY PHARMACEUTICAL CO., LTD., priority 2018, dated 2025)

How the values were obtained:
Format in all cases: physicochemical
[1] = Dissolution rate in water; conditions: about 25 mg in 900 mL water, 37° C., rotating speed 100/minute
Procedure: The crystal form I of (S)—N-[5-[1-(3-ethoxy-4-methoxyphenyl)-2-(methylsulfonyl)ethyl]-4,6-dioxo-5,6-dihydro-4H-thieno[3,4-c]pyrrole-1-yl]acetamide prepared according to the process in Example 1 was tested.
About 25 mg of crystal form I of (S)—N-[5-[1-(3-ethoxy-4-methoxyphenyl)-2-(methylsulfonyl)ethyl]-4,6-dioxo-5,6-dihydro-4H-thieno[3,4-c]pyrrole-1-yl]acetamide was added to 900 mL of water. The mixture was stirred at a rotating speed of 100/minute at 37° C. for 90 minutes. The supernatant was filtered and diluted. The concentration of the diluted solution (a mg/mL) was determined by ultraviolet spectrophotometer. The dissolution rate was calculated according to the formula 900a/25×100%.

[2] = Pressure stability (tablet press, DSC); conditions: single punch tablet press, tablet diameter 6 mm, hardness 25-30 N
Procedure: Crystal form I of (S)—N-[5-[1-(3-ethoxy-4-methoxyphenyl)-2-(methylsulfonyl)ethyl]-4,6-dioxo-5,6-dihydro-4H-thieno[3,4-c]pyrrole-1-yl]acetamide was pressed by tablet press machine with single punch. The diameter of the tablet was 6 mm and the hardness was 25-30 N. DSC test was carried out on pressed powder.

[3] = High temperature stability and high temperature and high humidity stability; conditions: for Relevant Substance Contents after 1 Month: storage at 40° C.
Procedure: High Temperature Stability and High Temperature and High Humidity Stability Crystal form I of (S)—N-[5-[1-(3-ethoxy-4-methoxyphenyl)-2-(methylsulfonyl)ethyl]-4,6-dioxo-5,6-dihydro-4H-thieno[3,4-c]pyrrole-1-yl]acetamide was placed at 40° C. (high temperature) or at 40° C. and Rh=75% (high temperature and high humidity) for 1 month. Relevant substance contents of crystal form I of (S)—N-[5-[1-(3-ethoxy-4-methoxyphenyl)-2-(methylsulfonyl)ethyl]-4,6-dioxo-5,6-dihydro-4H-thieno[3,4-c]pyrrole-1-yl]acetamide were tested after 1 month.

[4] = Moisture absorption stability; conditions: RH=80%
Procedure: Crystal form I of (S)—N-[5-[1-(3-ethoxy-4-methoxyphenyl)-2-(methylsulfonyl)ethyl]-4,6-dioxo-5,6-dihydro-4H-thieno[3,4-c]pyrrole-1-yl]acetamide was placed in a drier containing saturated ammonium chloride solution (RH=80%) until weight was balanced. The crystal form stability of (S)—N-[5-[1-(3-ethoxy-4-methoxyphenyl)-2-(methylsulfonyl)ethyl]-4,6-dioxo-5,6-dihydro-4H-thieno[3,4-c]pyrrole-1-yl]acetamide was tested after weight was balanced.

Illumination stability = test: Illumination stability
Procedure: Crystal form I of (S)—N-[5-[1-(3-ethoxy-4-methoxyphenyl)-2-(methylsulfonyl)ethyl]-4,6-dioxo-5,6-dihydro-4H-thieno[3,4-c]pyrrole-1-yl]acetamide was placed in a 4500 lux of illumination box for 1 month. Crystal form stability of (S)—N-[5-[1-(3-ethoxy-4-methoxyphenyl)-2-(methylsulfonyl)ethyl]-4,6-dioxo-5,6-dihydro-4H-thieno[3,4-c]pyrrole-1-yl]acetamide was tested after 1 month.

CCOc1cc([C@@H](CS(C)(=O)=O)N2C(=O)c3csc(NC(C)=O)c3C2=O)ccc1OC [crystal form I, (S)—N-[5-[1-(3-ethoxy-4-methoxyphenyl)-2-(methylsulfonyl)ethyl]-4,6-dioxo-5,6-dihydro-4H-thieno[3,4-c]pyrrole-1-yl]acetamide]
Dissolution Rate ([1]; time 15 min): 40.0%
Dissolution Rate ([1]; time 30 min): 55.9%
Dissolution Rate ([1]; time 45 min): 65.2%
Dissolution Rate ([1]; time 60 min): 71.4%
Dissolution Rate ([1]; time 75 min): 75.5%
Dissolution Rate ([1]; time 90 min): 78.0%
Pressure stability (DSC curve of pressed powder compared with FIG. 2) [2]: good stability
Chemical stability under high temperature and high-temperature and high-humidity conditions ([3]; 40° C. or 40° C. and RH 75%, 1 month): good chemical stability
Relevant Substance Contents at Day 0 ([3]; before storage): 0.06%
Relevant Substance Contents after 1 Month [3]: 0.07%
Relevant Substance Contents after 1 Month ([3]; RH = 75%): 0.09%
Crystal form stability under high humidity conditions [4]: good crystal form stability
Relevant Substance Contents after 1 Month (Illumination stability; 4500 lux illumination box): 0.06%
Chemical stability under illumination conditions (Illumination stability; 4500 lux, 1 month): good chemical stability
Relevant Substance Contents at Day 0 (Illumination stability; before illumination): 0.06%
